The results in this text go back to PMC11855827, “High-Throughput Screening of Five Compound Libraries for Anthelmintic Activity and Toxicity Leads to the Discovery of Two Flavonoid Compounds” (International Journal of Molecular Sciences, 2025).

Read-outs that look alike come from different tables or passages of the source.

This experiment relates to C. elegans. The experiment is described as follows: microbe, parasite or virus in culture. Particulars: Caenorhabditis elegans.
Setting [1] is: 0 h, read-out: Percentage of motility inhibition 0 h, Table S2, C. elegans SS assay, 110 μM, 0 h, averages of 4 data points.
Setting [2] is: 24 h, read-out: Percentage of motility inhibition 24 h, Table S2, C. elegans SS assay, 110 μM, 24 h, averages of 4 data points.

Turning to `C=C1CCC[C@]2(C)C[C@@H]3OC(=O)C(C)=C3C[C@@H]12` [Atractylenolide II], the inhibition (commonly the percentage by which the read-out fell short of the control) at 110 µM is, setting by setting: under setting [1], 10%; under setting [2], 2%.
The corresponding values for `CCC(=O)c1c(O)cc(O)cc1O` [Flopropione] are 40% and 18%.
Take `O=C(N/N=C/c1ccc([N+](=O)[O-])o1)c1cc([N+](=O)[O-])cc([N+](=O)[O-])c1O` [Nifursol]: the inhibition at 110 µM reads like this: under setting [1], 8%; under setting [2], 6%.
With `O=c1c(-c2ccc(O[C@@H]3O[C@H](CO)[C@@H](O)[C@H](O)[C@H]3O)cc2)coc2cc(O)cc(O)c12` [Sophoricoside], the inhibition at 110 µM stood at 0% (0 h, read-out: Percentage of motility inhibition 0 h) and 9% (24 h, read-out: Percentage of motility inhibition 24 h).
Consider `CC(C)=CCC[C@](C)(O)[C@H]1CC[C@]2(C)[C@@H]1[C@H](O)C[C@@H]1[C@@]3(C)CC[C@H](O[C@@H]4O[C@H](CO)[C@@H](O)[C@H](O)[C@H]4O)C(C)(C)[C@@H]3CC[C@]12C` [Ginsenoside Rh2], for which the inhibition at 110 µM came out at 34% under setting [1] and 38% under setting [2].
Taken in the same sequence, the figures for `C=C[C@H]1C[N@@]2CC[C@H]1C[C@@H]2[C@@H](O)c1ccnc2ccc(OC)cc12` [Quinidine] were 23% and 3%.
Taken in the same sequence, the figures for `O=C1O[C@H]([C@@H](O)CO)C(O)=C1O` [L-Ascorbic acid] were 5% and 9%.
The corresponding values for `CC[C@H]1OC(=O)[C@H](C)[C@@H](O[C@H]2C[C@@](C)(OC)[C@@H](O)[C@H](C)O2)[C@H](C)[C@@H](O[C@@H]2O[C@H](C)C[C@H](N(C)C)[C@H]2O)[C@](C)(O)C[C@@H](C)[C@@H]2N[C@@H](COCCOC)O[C@H]([C@H]2C)[C@]1(C)O` [Dirithromycin] are 3% and 0%.
Turning to `C1CNCCN1` [Piperazine], the inhibition at 110 µM by setting is: under setting [1], 3%; under setting [2], 0%.
As to `O=C1C[C@@H](c2ccccc2)Oc2cc(O)cc(O)c21` [Pinocembrin], the inhibition at 110 µM was 44% under setting [1] and 5% under setting [2].
The corresponding values for `CC(C)=CCC[C@@H](C)CC=O` [(R)-(+)-Citronellal] are 0% and 8%.
The corresponding values for `Oc1cc(O)c2c(c1)O[C@H](c1ccc(O)c(O)c1)[C@H](O)[C@H]2c1c(O)cc(O)c2c1O[C@H](c1ccc(O)c(O)c1)[C@H](O)[C@H]2c1c(O)cc(O)c2c1O[C@H](c1ccc(O)c(O)c1)[C@H](O)C2` [Procyanidin C1] are 2% and 29%.
The corresponding values for `CC1CCc2cc(F)cc3c(=O)c(C(=O)O)cn1c23` (centres unmarked) [Flumequine] are 20% and 21%.
On to `Nc1nc2c(ncn2CCC(CO)CO)c(=O)[nH]1` [Penciclovir], for which the inhibition at 110 µM under setting [1] was determined as 22% and the inhibition at 110 µM under setting [2] amounted to 1%.
Taken in the same sequence, the figures for `Nc1ccn([C@@H]2CS[C@H](CO)O2)c(=O)n1` [Lamivudine] were 23% and 5%.
Taken in the same sequence, the figures for `Cc1ncc(C[n+]2csc(CCO)c2C)c(N)n1` [Thiamine monochloride] were 13% and 6%.
Taken in the same sequence, the figures for `O=c1cc(-c2ccc(O)cc2)oc2cc(O[C@@H]3O[C@H](CO)[C@@H](O)[C@H](O)[C@H]3O)c([C@@H]3O[C@H](CO)[C@@H](O)[C@H](O)[C@H]3O)c(O)c12` [Saponarin] were 1% and 1%.
As to `NC(=O)Cc1c[nH]c2ccccc12` [Indole‐3‐acetamide], the inhibition at 110 µM by setting is: under setting [1], 0%; under setting [2], 0%.
Regarding `CC1OC(OCC2OC(Oc3c(-c4ccc(O)cc4)oc4cc(OC5OC(C)C(O)C(O)C5O)cc(O)c4c3=O)C(O)C(O)C2O)C(O)C(O)C1O` (centres unmarked) [Robinin], the inhibition at 110 µM is 31% under setting [1] and 8% under setting [2].
